This note sets out measurements from PMC4490100 (Clinical cancer research : an official journal of the …, 2015).

The test system of data set [1] is mononuclear cells from normal bone marrow. Format: cell-based, human.
Another data set has as its system OCI-AML3 cells. Description: Cell death assay. Format: cell-based, human. Conditions: OCI-AML3, overnight at 37 °C, 40 μM or higher, AnnexinV-FITC/PI flow cytometry. (In flow cytometry, cells or beads pass a laser one at a time.)
In another data set the test system is human leukemia cells. Description: Leukemia cell morphology after overnight incubation. Type of data set: cell-based. Particulars: overnight incubation (Fig. 4C).

Regarding “CGRRAGGSC-GG-D(KLAKLAK)2 (disulfide) [BMTP-11]”, in data set [1], the “effects on mononuclear cells from normal bone marrow” value is on record as “no detectable effects”. Moreover, the “cell death (fraction of cells)” value in the data set with OCI-AML3 cells was ~ 90%. In the data set on human leukemia cells, the “effect on leukemia cell morphology” value was “affected the morphology”.
